The text below walks through data of publication PMC3172808 (Journal of medicinal chemistry, 2011).

For data set [1] the following is noted: rodents; ref [7]–[9]; cited from earlier work.
Data set [2] is described as follows: aqueous solubility. The class given is physicochemical.
The test system of data set [3] is renal carcinoma cell line 786-0. Nature of the data set: potency toward MDR-1 expressing 786-0 cells with and without verapamil. It is filed as cell-based.
The conditions of data set [4]: over 24 h; ref [16]; cited from earlier work.
For data set [5], the system named is MDA-MB-231 breast cancer model. As to conditions: continued dosing at 40 mg/kg (½MTD), ref [16], cited from earlier work.
Data set [6] deals with MCF-7 cancer cells. As to conditions: read-out: MCF-7 IC50; Table 1; ref [17]–[20]; cited from earlier work.
Data set [7] has as its system A2780ADR. Nature of the data set: potency toward A2780ADR. The class given is cell-based, human. As to conditions: read-out: drug IC50 A2780ADR; adriamycin resistant, MDR-1 overexpression.
In data set [8] the test system is A2780cis. Nature of the data set: potency toward A2780cis. The class given is cell-based, human. The following applies: read-out: drug IC50 A2780cis; cisplatin resistant.

For `COc1cc2c(c(OC)c1OC)-c1ccc(OC)c(=O)cc1[C@@H](NC(C)=O)CC2` [Compound 1, colchicine], the LD50 in data set [1] is less than 5 mg/kg. For the compound `COc1cc(C(=O)c2c(C)oc3c(O)c(OC)ccc23)cc(OC)c1OC` [Compound 8, 7-hydroxy-6-methoxy-2-methyl-3-(3,4,5-trimethoxybenzoyl)benzo-[b]furan], in data set [2], the aqueous solubility result was “poor”. Also, the MDR-1 transporter substrate result in data set [3] was “not a substrate for the MDR-1 transporter”. Besides, in data set [4], the “clearance from healthy tissues” value is “completely cleared from healthy tissues over 24 h”. Take `COc1cc(C(=O)c2c(C)oc3c(OP(=O)([O-])[O-])c(OC)ccc23)cc(OC)c1OC.[Na+].[Na+]` [Compound 9, Disodium (6-Methoxy-2-methyl-3-(3,4,5-trimethoxybenzoyl)benzofuran-7-yl)phosphate]: in data set [5] (after 70 days), the “complete eradication of tumors, % of the mice” value was 14%. Moreover, the “tumor growth on continued dosing” value in data set [5] is on record as “completely suppresses tumor growth”. On to `COc1ccc(-c2sccc2C(=O)c2cc(OC)c(OC)c(OC)c2)cc1O` [Compound 14], for which, in data set [6], the IC50 is 300 ± 400 nM.

As for `N.N.[Cl][Pt][Cl]` [cisplatin], the IC50 amounted to 1100 nM in data set [7] and 5020 nM in data set [8].

The LD50 is the dose expected to kill half of the subjects tested. As usually defined, the IC50 is the concentration at which inhibition is half-maximal.
